Several values for one entry are separate records, joined by “and”; a condition that tells them apart may be missing. Equal entries are not always repeated.
What was measured:
[1] = Hydrodynamic diameter and polydispersity index by dynamic light scattering; assay type: physicochemical; conditions: for Hydrodynamic diameter (nm) / PDI: FxNP
Excerpt: (§1) [NT] antisense (SEQ ID NO: 2): [NT] where “d” denotes a DNA base), siFLuc-2 (sense (SEQ ID NO: 3): [NT] antisense (SEQ ID NO: 4): [NT] where “d” denotes a DNA base and “m” indicates a 2'-O-methyl RNA base), sinLuc (sense (SEQ ID NO: 5): [NT] antisense SEQ ID NO: 6): [NT] where “d” denotes a DNA base), […]1 (sense (SEQ ID NO: 7): [NT] antisense (SEQ ID NO: 8): [NT] where “d” denotes a DNA base and “m” indicates a 2'-O-methyl RNA base), siNT (sense (SEQ ID NO: 9): [NT] antisense (SEQ ID NO: 10): [NT] where “d” denotes a DNA base and “m” indicates a 2'-O-methyl RNA base), mFLuc (EZ Cap Firefly Luciferase mRNA (5-moUTP), ApexBio), rRNA or RNA from Torula utilis yeast (T.U. RNA) was diluted in citrate buffer (50 or 25 mM, pH 4), malate buffer (25 mM, pH 4.0) or acetate buffer (25 mM, pH 4.0). A lipid/drug mix concentration of 5.5 mM was used with a total flow rate of 9 mL/min at a 3:1 ratio of aqueous to organic phase. […] After formulation, buffer exchange into PBS or Tris-buffered saline (TBS; pH 8.5) was performed using Amicon Ultra-4 centrifugal filters (molecular weight cut-off 10 kDa). Hydrodynamic diameter, polydispersity index (PDI), and scattering intensity were measured by dynamic light scattering (DLS) using a DynaPro Plate Reader II (Wyatt Technologies). The instrument was configured with a 60 mW 830 nm laser and a detector angle of 158°. A 25 μL sample of each formulation was pipetted into each well of a 384-well plate and measured with 20 acquisitions per sample at 25° C. […] Quant-iT RiboGreen reagent was added, and fluorescence intensity was quantified using a Tecan Infinite […] plate reader.

[2] = RNA encapsulation efficiency (modified Quant-iT RiboGreen assay) and loading; assay type: physicochemical; conditions: for Encapsulation efficiency (%) / Small molecule drug mass % / siRNA mass %: FxNP
Excerpt: as §1

SKOV3 cells = test: Cellular uptake of DiD-labelled nanoparticles by fluorescence microscopy; assay type: cell-based; conditions: with DOPC or DSPE; 20 nM T.U. RNA, 3 h
Method: 2.5-5.0×10^3 SKOV3 cells or 1.0×10^4 T47D cells in 25 μL were plated in each well of a 384-well plate (Greiner Bio-One 781097) and allowed to adhere overnight. For endocytosis blocking studies, cells were washed once with Hank's Balanced Salt Solution (HBSS), and then fresh media containing an endocytosis blocker was added and plates were incubated at 37° C. for 30 min prior to dosing. For ApoE supplementation studies and endocytosis-blocking studies, serum free media, serum free media supplemented with ApoE (1.5 μg/mL), complete media, or complete media with hydroxydynasore (20 μM) was added for 30 min prior to dosing). […] The plate was incubated at 37° C. for 3 h after which the media was removed, and the cells were washed with HBSS, fixed for 15 min with 4% (m/v) PFA in PBS, and stained for 15 min with 5 μg/mL Hoechst in PBS before imaging by wide-field fluorescence microscopy imaging as described below.
Fluorescence images were acquired using a Zeiss Apotome Live Cell System (Axio Observer Z.1 inverted fluorescence microscope) with a long working distance 40× Plan Neofluor objective (NA=0.6, Carl Zeiss Canada), and X-Cite 120 LED fluorescence lamp (Lumen Dynamics), and an […]

[3] = Zeta potential (Malvern Zetasizer); assay type: physicochemical; conditions: FxNP
Method: Zeta potential was measured by diluting FXNPs in phosphate to an ion concentration of 1 mM and using a Malvern Zetasizer Nano ZS instrument.

[4] = test system: firefly luciferase expression in mouse liver; test: In vivo liver bioluminescence after i.v. injection of mFLuc nanoparticles; parameters: species or system BALB/c mice; conditions: tail vein, 1 mg/kg mRNA, 4 and 24 h
Method: Animal study protocols were approved by the Animal Care Committee at the University of Toronto and experiments were performed in accordance with the Guide to Care and Use of Experimental Animals (Canadian Council on Animal Care). FXNPs with encapsulated mFLuc and DIR (0.5 mol %) were administered (1 mg/kg in terms of mRNA) via tail vein injection to BALB/c mice. After 4 h and 24 h, mice were anesthetized using isoflurane and injected intraperitoneally with 150 mg/kg VivoGlo™ luciferin (Promega, Madison, WI). Whole-body luminescence was acquired by a PerkinElmer In-Vivo Imaging System Spectrum instrument after 10-20 minutes.

FLuc in SKOV3-FLuc cells = test: Model gene knockdown, firefly luciferase; assay type: cell-based
Method: For single-dose studies, 5×10^3 SKOV3-FLuc or 2×10^3 Vero-nLucP cells in 100 μL were plated in each well of a white-wall 96-well plate (Costar 3610) and allowed to adhere overnight. FXNP suspensions were diluted in PBS and 10 μL of each tested formulation was dosed in triplicate, followed by 100 μL of complete cell growth media to promote mixing. The final encapsulated siRNA concentration in each well was 50.0 nM. For dose-response studies, 1.25×10^3 SKOV3-FLuc cells in 25 μL were plated in each well of a white-wall 384-well plate (Greiner Bio-one 781073) and allowed to adhere overnight. Nanoparticle suspensions were diluted in PBS and 5 μL of each tested formulation was dosed in triplicate, followed by 20 μL of complete cell growth media to promote mixing. The final encapsulated siRNA concentration in each well is specified in each figure. For all studies, the plate was incubated for 24 h followed by removal of the media. For SKOV3-FLuc cells, fresh media was added, and the plate was incubated for an additional 24 h before removal of the media. Total cellular metabolic activity was quantified by addition of PrestoBlue™ according to the manufacturer's instructions, after which the reagent was subsequently removed, and expression of either firefly luciferase (SKOV3-FLuc) or nano luciferase (Vero-nLucP) was determined by Steady-Glo® Luciferase Assay System or Nano-Glo® Luciferase Assay System, respectively. Luminescence was measured using a Tecan Infinite Pro 200 plate reader. Cell metabolic activity and reporter gene expression are represented relative to cells treated with an equivalent volume of PBS. Reporter gene expression is normalized to cell metabolic activity. For dose-response studies, IC50 values were determined by non-linear regression analysis using eq. 3

T47D-R cells = test: Confirmation of palbociclib resistance; assay type: cell-based; conditions: Homo sapiens; palbociclib-resistant T47D cells (T47D-R)
Method: SKOV3 cells were obtained from ATCC. SKOV3-luc cells were obtained from Cell Biolabs. Vero-E6-nLucP cells were a generous gift from Roman Melnyk. T47D cells were a gift from B. Neel (University Health Network). Palbociclib-resistant T47D cells (T47D-R) were developed by dose escalation of palbociclib up to 500-1000 nM over 6-12 months and was confirmed by a palbociclib IC50 greater than […]. Parental T47D cells (T47D-P) were cultured over the same time frame without palbociclib treatment. Cells were maintained in a humified incubator at 37° C. with 5% atmospheric CO2. RPMI 1640 (SKOV3, T47D) or EMEM (Vero-E6) were used as a base media. Cells were grown in 75 cm^2 tissue culture flasks with 10 mL of media supplemented with 10% FBS, 10 UI/mL penicillin and 10 μg/mL streptomycin. The cells were passaged once per week following detachment with trypsin-EDTA, replacement of the supernatant with fresh media, and subculture into a new flask with fresh media. Subculture ratios between 1:4 and 1:50 were used.

[5] = ionizable compound (fulvestrant analog); cited from earlier work
[6] = no cholesterol versus standard formulation

Fc1ccc(-n2cc(CCCCN3CCC4(CC3)OCc3ccccc34)c3ccccc32)cc1 [siramesine, reference compound]
increase in particle size on removal of cholesterol [1, 6]: 4 fold
particle size ([1]; siRNA, standard formulation): ~100 nm
siRNA encapsulation efficiency ([2]; natively ionizable drug in place of fulvestrant analog, standard formulation): ~85% and ~95%
loss of encapsulated siRNA on removal of cholesterol [2, 6]: ~70%
nanoparticle formation with RNA cargos of varying molecular weight ([2]; siRNA, T.U. RNA, rRNA, mRNA): form nanoparticles encapsulating a range of RNA cargos
uptake relative to DSPC-based nanoparticles (SKOV3 cells): significantly improve uptake

C[C@]12CC[C@@H]3c4ccc(O)cc4C[C@@H](CCCCCCCCC[S+]([O-])CCCC(F)(F)C(F)(F)F)[C@H]3[C@@H]1CC[C@@H]2O (some centres unmarked) [FV, fulvestrant, reference compound]
Hydrodynamic diameter (nm) ([1]; siFLuc, DSPC): 204.7 nm
PDI ([1]; siFLuc, DSPC): 0.102
encapsulation and loading efficiencies of siRNA (in words) ([2]; DSPC formulations): low
Encapsulation efficiency (%) ([2]; siFLuc, DSPC): 14.5%
Small molecule drug mass % ([2]; siFLuc, DSPC): 52.8%
siRNA mass % ([2]; siFLuc, DSPC): 0.9%
Zeta potential (mV) ([3]; siFLuc, DSPC): −19.23 mV
liver bioluminescence [4]: did not show bioluminescence above the baseline

CCCCCCCCCCCOC(=O)CCCCCN(CCO)CCCCCCCC(=O)OC(CCCCCCCC)CCCCCCCC [SM-102]
effect of removing netarsudil without replacement (FLuc in SKOV3-FLuc cells; netarsudil:SM-102 0:10): decrease in potency and loss of encapsulated siRNA
change of IC50 on replacing all of the netarsudil with SM-102 (FLuc in SKOV3-FLuc cells; netarsudil:SM-102 0:50): non-significant decrease in IC50

CC(=O)c1c(C)c2cnc(Nc3ccc(N4CCNCC4)cn3)nc2n(C2CCCC2)c1=O [palbociclib]
IC50 (T47D-R cells): > 1000 nM

CC12CCC3c4ccc(O)cc4CC(CCCCCCCCCS(=O)(CCCC(F)(F)C(F)(F)F)=NC(=O)CN4CCOCC4)C3C1CCC2O (centres unmarked) [7a]
Hydrodynamic diameter (nm) ([1]; siFLuc, DOPC): 245.9 nm
PDI ([1]; siFLuc, DOPC): 0.035
Hydrodynamic diameter (nm) ([1]; siFLuc, DSPC): 149.3 nm
PDI ([1]; siFLuc, DSPC): 0.022
Hydrodynamic diameter (nm) ([1]; sinLuc, DOPC): 243.5 nm
PDI ([1]; sinLuc, DOPC): 0.014
Encapsulation efficiency (%) ([2]; siFLuc, DOPC): 58.7%
Small molecule drug mass % ([2]; siFLuc, DOPC): 56.7%
siRNA mass % ([2]; siFLuc, DOPC): 3.0%
Encapsulation efficiency (%) ([2]; siFLuc, DSPC): 69.9%
Small molecule drug mass % ([2]; siFLuc, DSPC): 56.3%
siRNA mass % ([2]; siFLuc, DSPC): 3.6%
Encapsulation efficiency (%) ([2]; sinLuc, DOPC): 79.5%
Small molecule drug mass % ([2]; sinLuc, DOPC): 56.1%
siRNA mass % ([2]; sinLuc, DOPC): 4.0%
Zeta potential (mV) ([3]; siFLuc, DOPC): −11.27 mV
Zeta potential (mV) ([3]; siFLuc, DSPC): −12.97 mV
Zeta potential (mV) ([3]; sinLuc, DOPC): −11.80 mV
pKa [5]: 5.1

Cc1ccc(C(=O)OCc2ccc([C@@H](CN)C(=O)Nc3ccc4cnccc4c3)cc2)c(C)c1 [netarsudil]
IC50 (FLuc in SKOV3-FLuc cells; 50:0 netarsudil:SM-102, narrowed concentration range (<2 nM)): > 2 nM
IC50 (FLuc in SKOV3-FLuc cells; TBS, 40 mol % netarsudil with 10 mol % ALC-0315): 0.32 nM
IC50 (FLuc in SKOV3-FLuc cells; TBS, 40 mol % netarsudil with 10 mol % MC3): 0.77 nM
IC50 (FLuc in SKOV3-FLuc cells; TBS, 40 mol % netarsudil with 10 mol % SM-102): 0.16 nM
IC50 (FLuc in SKOV3-FLuc cells; neutralized in TBS, 50 mol % netarsudil, no ionizable lipid): 3.8 nM
